Values of other authors in patent publication US20040138296A1, “Amyloid immunization and Cox-2 inhibitors for the treatment of alzheimer's disease” (Pharmacia Corporation, priority 2002, published 2004).

Assays:
[1] = system: AD patients; settings: for other adverse effects: metrifonate in Phase III trials
[2] = system: microglial and astrocytic activation; settings: adult rats, Abeta (1-42) into nucleus basalis
[3] = system: glia reaction, iNOS production; settings: once a day, seven days following the injection
[4] = system: neurons; settings: Abeta (25-35) and Abeta (1-40)
[5] = system: AD patients; settings: over 300 AD patients
[6] = system: mild or moderately impaired Alzheimer's disease patients; settings: 100-150 mg, 6 months
[7] = system: NG108-15 cells; settings: by inhibition of APP mRNA level

## COP(=O)(OC)C(O)C(Cl)(Cl)Cl (centres unmarked) [metrifonate]
[1]; patients
  other adverse effects: leg cramps and muscle cramps

## Nc1c2c(nc3ccccc13)CCCC2 [Tacrine]
[1]; cholinesterase inhibitor in AD use
  half-life: short half-life
[1]; patients
  hepatotoxicity: hepatotoxic effects in a number of patients

## CS(=O)(=O)c1ccc(C2=C(c3ccccc3)C(=O)OC2)cc1 [rofecoxib]
[2]
  microglial and astrocytic activation: attenuated microglial and astrocytic activation

## CC(C)Cc1ccc(C(C)C(=O)O)cc1 (centres unmarked) [ibuprofen]
[3]
  astrocytic reaction: no effect on astrocytic reaction
  microglia reaction: attenuated microglia reaction
  number of iNOS-positive cells: reduced the number of iNOS-positive cells

## CCN(C)C(=O)Oc1cccc([C@H](C)N(C)C)c1 [Rivastigmine]
[1]; human, in vivo
  duration of action: 10 h
[1]; patients
  gastrointestinal side effects: some gastrointestinal side effects
  other adverse effects: weight loss

## CS(=O)(=O)Nc1ccc([N+](=O)[O-])cc1Oc1ccccc1 [nimesulide, N-(4-Nitro-2-phenoxy-phenyl)-methanesulfonamide]
[3]
  astrocytic reaction: no effect on astrocytic reaction
  microglia reaction: attenuated microglia reaction
  number of iNOS-positive cells: reduced the number of iNOS-positive cells

## CCN1CC/C(=C\c2cc(C(C)(C)C)c(O)c(C(C)(C)C)c2)S1(=O)=O [Compound S-2474]
[4]
  Abeta induced cell death of neurons: significantly prevented

## COc1cc2c(cc1OC)C(=O)C(CC1CCN(Cc3ccccc3)CC1)C2 (centres unmarked) [Donepezil]
[1]; controlled trials, mild to moderately severe AD patients
  AD-associated deterioration: can delay AD-associated deterioration
[1]; patients
  gastrointestinal side effects: relatively low incidence of gastrointestinal side effects

## Cc1c(C)c2c(c(C)c1O)CC[C@@](C)(CCC[C@H](C)CCC[C@H](C)CCCC(C)C)O2 [vitamin E, alpha-tocopherol]
[5]
  progression of the disease: slow the progression of the disease

## C#CCN(C)[C@H](C)Cc1ccccc1 [selegeline, Selegiline]
[5]
  progression of the disease: slow the progression of the disease

## COc1ccc2c(c1)c(CC(=O)O)c(C)n2C(=O)c1ccc(Cl)cc1 [indomethacin]
[6]
  cognitive decline versus placebo: appeared to protect the patients
[7]
  production of amyloid β-peptide and a secreted form of APP: suppressed production
